Assay results reported in ChEMBL document CHEMBL1944554, “Structure-activity relationships for the interaction of 5,10-dihydroindeno[1,2-b]indole derivatives with human and bovine carbonic anhydrase isoforms I, II, III, IV and VI” (Eur J Med Chem, 2012).

Assays:
[1] = target: T1, Carbonic anhydrase 3 (Bos taurus, UniProt Q3SZX4); test: Inhibition of bovine carbonic anhydrase 3 using 4-nitrophenylacetate as substrate after 3 mins using spectrophotometry by Lineweaver-Burk plot analysis
T1 sequence (Q3SZX4 whole entry): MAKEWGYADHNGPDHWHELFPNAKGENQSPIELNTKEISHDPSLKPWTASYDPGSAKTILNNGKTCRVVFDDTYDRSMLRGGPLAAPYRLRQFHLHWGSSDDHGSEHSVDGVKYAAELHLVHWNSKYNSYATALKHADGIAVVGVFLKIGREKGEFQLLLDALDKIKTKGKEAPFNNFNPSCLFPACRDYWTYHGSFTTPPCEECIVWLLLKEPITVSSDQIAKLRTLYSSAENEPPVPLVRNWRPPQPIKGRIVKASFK

[2] = target: Carbonic anhydrase 1 (Homo sapiens, UniProt P00915); test: Inhibition of human carbonic anhydrase 1 using 4-nitrophenylacetate as substrate after 3 mins using spectrophotometry by Lineweaver-Burk plot analysis
Chain of Carbonic anhydrase 1 (P00915 whole entry): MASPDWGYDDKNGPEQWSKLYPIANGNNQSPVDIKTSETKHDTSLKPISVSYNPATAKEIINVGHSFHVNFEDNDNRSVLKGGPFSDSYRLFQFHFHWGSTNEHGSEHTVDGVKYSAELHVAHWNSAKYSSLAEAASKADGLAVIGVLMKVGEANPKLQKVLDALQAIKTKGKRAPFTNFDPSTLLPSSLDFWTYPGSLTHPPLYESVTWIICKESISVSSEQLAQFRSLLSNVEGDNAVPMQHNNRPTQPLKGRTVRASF

[3] = target: Carbonic anhydrase 4 (Homo sapiens, UniProt P22748); test: Inhibition of human carbonic anhydrase 4 using 4-nitrophenylacetate as substrate after 3 mins using spectrophotometry by Lineweaver-Burk plot analysis
Chain of Carbonic anhydrase 4 (P22748 whole entry): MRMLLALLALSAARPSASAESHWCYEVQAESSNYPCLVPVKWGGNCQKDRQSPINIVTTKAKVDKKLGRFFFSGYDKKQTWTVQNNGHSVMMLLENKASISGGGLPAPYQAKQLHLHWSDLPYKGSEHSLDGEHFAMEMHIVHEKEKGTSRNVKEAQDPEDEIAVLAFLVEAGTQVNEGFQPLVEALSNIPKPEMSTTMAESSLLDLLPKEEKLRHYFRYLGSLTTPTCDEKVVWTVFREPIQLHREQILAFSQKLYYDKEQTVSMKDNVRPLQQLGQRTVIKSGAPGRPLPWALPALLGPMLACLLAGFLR

[4] = target: Carbonic anhydrase 6 (Homo sapiens, UniProt P23280); test: Inhibition of human carbonic anhydrase 6 using 4-nitrophenylacetate as substrate after 3 mins using spectrophotometry by Lineweaver-Burk plot analysis
Chain of Carbonic anhydrase 6 (P23280 whole entry): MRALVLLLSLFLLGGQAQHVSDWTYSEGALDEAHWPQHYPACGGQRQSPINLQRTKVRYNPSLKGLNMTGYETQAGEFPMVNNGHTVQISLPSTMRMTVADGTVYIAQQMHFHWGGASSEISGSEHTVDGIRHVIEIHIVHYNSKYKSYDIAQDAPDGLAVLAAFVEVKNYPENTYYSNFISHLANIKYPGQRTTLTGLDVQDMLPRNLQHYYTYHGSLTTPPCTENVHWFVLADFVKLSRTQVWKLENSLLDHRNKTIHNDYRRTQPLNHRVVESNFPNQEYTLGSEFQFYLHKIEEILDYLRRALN

[5] = target: Carbonic anhydrase 2 (Homo sapiens, UniProt P00918); test: Inhibition of human carbonic anhydrase 2 using 4-nitrophenylacetate as substrate after 3 mins using spectrophotometry by Lineweaver-Burk plot analysis

Row | SMILES | Ki [1] | other results
1 | COc1ccccc1OC [1,2-DIMETHOXYBENZENE] | 4.24 µM | 
2 | Oc1cccc2c1-c1[nH]c3ccccc3c1C2 | 9.62 µM | 
3 | NS(=O)(=O)Cc1noc2ccccc12 [ZONISAMIDE] | 8.51 µM | 
4 | Brc1ccc2c(c1)Cc1c-2[nH]c2ccccc12 | 8.51 µM | 
5 | Oc1cc(O)c2c(c1)Cc1c-2[nH]c2ccccc12 | 4.63 µM | 
6 | c1ccc2c3c([nH]c2c1)-c1cc2c(cc1C3)OCO2 | 12.7 µM | 
7 | COc1cc2c(cc1OC)-c1[nH]c3ccccc3c1C2 | 15.8 µM | 
8 | Oc1cc2c(cc1O)-c1[nH]c3ccccc3c1C2 | 5.17 µM | 
9 | Clc1ccc2c(c1)Cc1c-2[nH]c2ccccc12 | 8.72 µM | 
10 | C[C@]12CC[C@@H]3c4ccc(OS(N)(=O)=O)cc4CC[C@H]3[C@@H]1CCC2=O [EMATE] | 12.4 µM | Ki [2]: 12.3 µM; Ki [3]: 1.04 µM; Ki [4]: 1.86 µM
11 | COc1cccc2c1Cc1c-2[nH]c2ccccc12 | 16.3 µM | 
12 | COc1ccc(OC)c2c1Cc1c-2[nH]c2ccccc12 | 11.2 µM | 
13 | Fc1ccc2c(c1)Cc1c-2[nH]c2ccccc12 | 8.63 µM | 
14 | Oc1ccc2c(c1O)Cc1c-2[nH]c2ccccc12 | 2.13 µM | 
15 | Oc1cccc2c1Cc1c-2[nH]c2ccccc12 | 8.84 µM | 
16 | COc1cc2c(c(OC)c1)-c1[nH]c3ccccc3c1C2 | 14.3 µM | 
17 | CCOc1ccc2nc(S(N)(=O)=O)sc2c1 [ETHOXZOLAMIDE] | 9.44 µM | 
18 | Oc1ccc2c(c1)-c1[nH]c3ccccc3c1C2 | 9.42 µM | 
19 | COc1ccc2c(c1OC)Cc1c-2[nH]c2ccccc12 | 10.3 µM | 
20 | Oc1ccc2c(c1)Cc1c-2[nH]c2ccccc12 | 9.08 µM | 
21 | Oc1ccc(O)c2c1Cc1c-2[nH]c2ccccc12 | 4.34 µM | 
22 | COc1ccc2c(c1)Cc1c-2[nH]c2ccccc12 | 14.9 µM | 
23 | Oc1ccccc1O [CATECHOL] | 3.48 µM | 
24 | c1ccc2[nH]ccc2c1 [INDOLE] | 17.6 µM | Ki [2]: 27.4 µM; Ki [5]: 32.5 µM; Ki [3]: 2.33 µM; Ki [4]: 3.63 µM
25 | c1ccc2c(c1)Cc1c-2[nH]c2ccccc12 | 17.8 µM | 
26 | COc1ccc2c(c1)-c1[nH]c3ccccc3c1C2 | 15.6 µM | 
